We go through eight molecules from PubChem BioAssay (NCI).

Some test systems named below: T-47D breast; MDA-MB-231 breast; HOP-92 NSCLC; SNB-75 CNS; UACC-257 melanoma; 786-0 renal; SK-MEL-28 melanoma; MOLT-4 leukemia; OVCAR-8 ovarian; NCI-H23 lung.
Experiment in all cases: inhibition of tumour cell growth, NCI panel, 48 h

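In this assay, cells in 96-well plates receive the compound at five concentrations for 48 hours. Endpoints are linearly interpolated between the surrounding concentrations. GI50: concentration for 50% inhibition of growth. The concentration for full growth arrest is given as TGI.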

For `O=C(Nc1cc(-c2cccnc2)nc(NCCCN2CCOCC2)n1)c1cc(Br)cc(C(F)(F)F)c1`, the GI50 in the assay on T-47D breast was 3.72 µM; in the assay with MDA-MB-231 breast it was 1.79 µM; in the assay on HOP-92 NSCLC it was 1.97 µM; in the assay with SNB-75 CNS it was 1.52 µM; in the assay on UACC-257 melanoma, 2.1 µM; with 786-0 renal, 1.55 µM. The GI50 was 1.73 µM in the assay on SK-MEL-28 melanoma, 3.63 µM in the assay on MOLT-4 leukemia, 2.98 µM in the assay with OVCAR-8 ovarian and 3.55 µM with NCI-H23 lung. Also, the TGI in the assay with T-47D breast was 16.1 µM; in the assay on MDA-MB-231 breast, 3.93 µM; in the assay on HOP-92 NSCLC it was 7.62 µM; in the assay with SNB-75 CNS it was 3.59 µM; in the assay with UACC-257 melanoma it was 3.78 µM; with 786-0 renal, 3.17 µM. Further, the TGI came out at 3.48 µM in the assay with SK-MEL-28 melanoma, 13.1 µM with MOLT-4 leukemia, 8.59 µM in the assay on OVCAR-8 ovarian and 15 µM with NCI-H23 lung.
With `COC(=O)[C@]12CC[C@@H](C)[C@H](C)[C@@H]1C1=CC[C@@H]3[C@@]4(C)CC(=O)[C@H](OC(=O)c5ccco5)[C@@]5(C)COC(=C45)C[C@@]3(C)[C@]1(C)CC2`, the GI50 in the assay with T-47D breast was 0.667 µM; with MDA-MB-231 breast, 5.11 µM; in the assay on HOP-92 NSCLC it was 14.9 µM; with SNB-75 CNS it was 6.3 µM; in the assay with UACC-257 melanoma, 0.352 µM; in the assay on 786-0 renal, 2.24 µM. Moreover, the GI50 was 0.579 µM in the assay on SK-MEL-28 melanoma, 0.669 µM with MOLT-4 leukemia, 2.47 µM with OVCAR-8 ovarian and 0.936 µM in the assay with NCI-H23 lung. The TGI in the assay on T-47D breast was over 100 µM; with MDA-MB-231 breast, over 100 µM; in the assay on HOP-92 NSCLC, over 100 µM; in the assay on SNB-75 CNS, over 100 µM; in the assay with UACC-257 melanoma, 2.93 µM; in the assay with 786-0 renal, over 100 µM. For the same molecule, the TGI in the assay on SK-MEL-28 melanoma, with MOLT-4 leukemia, in the assay on OVCAR-8 ovarian and in the assay with NCI-H23 lung was over 100 µM each time.
On to `C=CCCC(=O)N1C=CC(=O)[C@H](O)[C@@H]1/C=C/c1ccccc1`, for which the GI50 with T-47D breast is 15.5 µM; in the assay on MDA-MB-231 breast, 18.6 µM; with HOP-92 NSCLC, 30.8 µM; in the assay on SNB-75 CNS, 27.4 µM; with UACC-257 melanoma, 18 µM; with 786-0 renal, 9.84 µM. Further, the GI50 with SK-MEL-28 melanoma was 17.4 µM; with MOLT-4 leukemia, 15.6 µM; with OVCAR-8 ovarian, 16 µM; with NCI-H23 lung it was 23.6 µM. Also, the TGI with T-47D breast, in the assay on MDA-MB-231 breast, with HOP-92 NSCLC, in the assay with SNB-75 CNS, with UACC-257 melanoma and in the assay with 786-0 renal was over 32.5 µM throughout. In addition, the TGI in the assay with SK-MEL-28 melanoma, in the assay on MOLT-4 leukemia, in the assay with OVCAR-8 ovarian and in the assay on NCI-H23 lung was over 32.5 µM throughout.
Consider `CN(C)CCNc1nc2ccccc2c2c(=O)c3ccccc3sc12`, for which the GI50 in the assay with T-47D breast is 4.91 µM; with MDA-MB-231 breast, 1.34 µM; in the assay on HOP-92 NSCLC, 1.68 µM; in the assay on SNB-75 CNS it was 1.74 µM; with UACC-257 melanoma, 1.76 µM; in the assay on 786-0 renal, 1.49 µM. Besides, the GI50 in the assay with SK-MEL-28 melanoma is 2.08 µM; in the assay with MOLT-4 leukemia, 2.22 µM; in the assay with OVCAR-8 ovarian, 2.36 µM; in the assay on NCI-H23 lung, 1.68 µM. The TGI turned out to be 22.9 µM with T-47D breast; 3.64 µM in the assay on MDA-MB-231 breast; 6.73 µM with HOP-92 NSCLC; 6.94 µM in the assay on SNB-75 CNS; 3.53 µM with UACC-257 melanoma; 2.98 µM in the assay on 786-0 renal. Also, the TGI in the assay on SK-MEL-28 melanoma came out at 3.98 µM; in the assay on MOLT-4 leukemia, 6.1 µM; in the assay with OVCAR-8 ovarian, 6.92 µM; in the assay on NCI-H23 lung it was 4.86 µM.
Consider `Cc1ccc2c(c1)C(=O)c1c-2n(CCCN=[N+]=[N-])c(=O)c2cc([N+](=O)[O-])ccc12`, for which the GI50 with T-47D breast was 20.7 µM; in the assay with MDA-MB-231 breast it was 46.9 µM; in the assay on HOP-92 NSCLC, 30.2 µM; with SNB-75 CNS it was 1.26 µM; in the assay with UACC-257 melanoma, over 100 µM; in the assay on 786-0 renal, 29.8 µM. In addition, the GI50 is over 100 µM in the assay on SK-MEL-28 melanoma, 17.8 µM with MOLT-4 leukemia, over 100 µM in the assay on OVCAR-8 ovarian and over 100 µM in the assay on NCI-H23 lung. In addition, the TGI in the assay on T-47D breast is 93.6 µM; in the assay on MDA-MB-231 breast, over 100 µM; in the assay with HOP-92 NSCLC, over 100 µM; with SNB-75 CNS, 58.6 µM; in the assay on UACC-257 melanoma it was over 100 µM; in the assay on 786-0 renal, over 100 µM. Further, the TGI was over 100 µM in the assay with SK-MEL-28 melanoma, 70.4 µM in the assay on MOLT-4 leukemia, over 100 µM in the assay on OVCAR-8 ovarian and over 100 µM in the assay with NCI-H23 lung.
For `O=C(Nc1cccc(C(F)(F)F)c1)c1cc(Br)cc(Br)c1O`, the TGI was 9.69 µM in the assay with T-47D breast; over 10 µM in the assay with MDA-MB-231 breast; 5.82 µM in the assay with HOP-92 NSCLC; over 10 µM in the assay on SNB-75 CNS; 6.93 µM with UACC-257 melanoma; over 10 µM with 786-0 renal. Further, the TGI in the assay with SK-MEL-28 melanoma is over 10 µM; in the assay on MOLT-4 leukemia it was over 10 µM; in the assay on OVCAR-8 ovarian, over 10 µM; with NCI-H23 lung it was 5.27 µM.
Regarding `N#Cc1cccc(OCc2ccccc2COc2cccc(C#N)c2)c1`, the GI50 was 55.6 µM in the assay on T-47D breast; 7.83 µM with MDA-MB-231 breast; 2.36 µM with HOP-92 NSCLC; 29.7 µM with SNB-75 CNS; over 100 µM in the assay on UACC-257 melanoma; 12.3 µM in the assay with 786-0 renal. Besides, the GI50 was over 100 µM with SK-MEL-28 melanoma, over 100 µM with MOLT-4 leukemia, 55.9 µM with OVCAR-8 ovarian and 36.7 µM in the assay on NCI-H23 lung. The TGI with T-47D breast was over 100 µM; with MDA-MB-231 breast, 47.5 µM; in the assay on HOP-92 NSCLC, 15.4 µM; in the assay on SNB-75 CNS, 70.4 µM; in the assay with UACC-257 melanoma, over 100 µM; with 786-0 renal it was 27.7 µM. Also, the TGI in the assay with SK-MEL-28 melanoma, in the assay with MOLT-4 leukemia, in the assay with OVCAR-8 ovarian and with NCI-H23 lung was over 100 µM throughout.
For `CC[C@H](NC(=O)[C@H](CS(=O)(=O)CC1CC1)N[C@@H](c1ccc(F)cc1)C(F)(F)F)C(=O)C(=O)NC1CC1`, the GI50 was over 100 µM in the assay on T-47D breast; 93.1 µM in the assay on MDA-MB-231 breast; 98.7 µM with HOP-92 NSCLC; over 100 µM in the assay on SNB-75 CNS; over 100 µM with UACC-257 melanoma; over 100 µM with 786-0 renal. The GI50 is over 100 µM in the assay with SK-MEL-28 melanoma, 32.8 µM with MOLT-4 leukemia, over 100 µM with OVCAR-8 ovarian and over 100 µM with NCI-H23 lung. For the same molecule, the TGI in the assay on T-47D breast, in the assay on MDA-MB-231 breast, in the assay on HOP-92 NSCLC, in the assay with SNB-75 CNS, in the assay with UACC-257 melanoma and in the assay on 786-0 renal was over 100 µM in each case. The TGI in the assay on SK-MEL-28 melanoma, in the assay with MOLT-4 leukemia, in the assay on OVCAR-8 ovarian and in the assay with NCI-H23 lung was over 100 µM in each case.
